Earlier results as cited in patent US7211580B2, “Compounds, compositions, and methods” (Cytokinetics, Incorporated, priority 2002, dated 2007).

Tested on: A549 cells
Conditions: concentration that decreases rate of cell growth by fifty percent

GI50 [nM]	SMILES
1000	O=c1[nH]cc(F)c(=O)[nH]1 [5-fluorouracil]
4	CC(=O)O[C@H]1C(=O)[C@@]2(C)[C@H]([C@H](OC(=O)c3ccccc3)[C@]3(O)C[C@H](OC(=O)[C@H](O)[C@@H](NC(=O)c4ccccc4)c4ccccc4)C(C)=C1C3(C)C)[C@]1(OC(C)=O)CO[C@@H]1C[C@@H]2O [paclitaxel]
500000	NC(=O)NO [hydroxyurea]
63	COc1cccc2c1C(=O)c1c(O)c3c(c(O)c1C2=O)C[C@@](O)(C(=O)CO)C[C@@H]3O[C@H]1C[C@H](N)[C@H](O)[C@H](C)O1 [doxorubicin]
